Read-outs that look alike come from different tables or passages of the source.
Legend:
isolated rabbit hearts [1] = assay: cardiokinetic effect on isolated heart (Langendorff): contractile force after anoxia, positive inotropic effect; conditions: 10 minutes from interruption of anoxic period
Experimental: (§1) The cardiokinetic effect on isolated heart was also investigated as follows. Rabbit hearts isolated by the Langendorff method were perfused with oxygenized ringer solution at 38.2° C. The isometric contractions, electrocardiogram and coronary flow were recorded using a "Battaglia-Rangoni" polygraph. By removing the oxygen from the perfusion fluid, metabolic damage was induced in the cardia muscle, up to an 80% reduction in the cardiac contractile force.
(§2) Under these conditions of prolonged anoxia the aerobic glycolysis of the myocardium is slowed down, accompanied by the storage of acid catabolites due to both the accumulation of pyruvic acid and its conversion to lactic acid which cannot be utilized because of the depression of pyridine enzymes, such as LDH (lactodehydrogenase). This has repercussions on the anaerobic glycolysis affecting an ever increasing number of enzymes, accompanied by a progressive and increasingly critical exhaustion of the myocardium. Thus a whole series of cardiac muscle fatigue levels occurs which can be observed by the behavior of the examined parameters, namely the contractile force, coronary flow, heart rate and cardiac rhythm. As soon as the contractile force was reduced by 80%, the perfusion fluid was once again oxygenized either without adding other compounds (controls) or with the addition of the compounds under examination.
Table 3 below gives the percentage values of the contractile force of the heart, showing a positive inotropic effect, calculated after 10 minutes from the interruption of the anoxic period (myocardial restoration).

isolated rabbit hearts [2] = assay: coronary vasodilator effect: coronary flow, isolated heart (Langendorff)
Experimental: as §1, §2

isolated rat atrium = assay: antiarrhythmic effect, isolated rat atrium method of M. Libonati and G. Segre; conditions: Rattus norvegicus
female rats = assay: antifatigue effect: rota-rod; type: in vivo, rat; conditions: Rattus norvegicus, ip, 0.25 h
Experimental: The antifatigue effect was also examined with the following results. The antifatigue effect was investigated by administering the compounds of the formula (I) according to the present application to female rats intraperitoneally in saline solution and saline solution alone to the controls by the same route. Every 15 minutes (sessions) after treatment, the animals were placed on a 6 cm diameter rod, rotating at 16 r.p.m. The percentage of the animals capable of staying on the rota-rod for a duration of more than 180 seconds was then recorded.

[3] = read-out: Mean percent variation versus controls: excitability (-%)
[4] = read-out: Mean percent variation versus controls: frequency max (-%)
[5] = read-out: Mean percent variation versus controls: refractory period (+%)
[6] = read-out: Mean percent variation versus controls: rheobase (+%)

Compound: CCCCCCCCCCCCCCCC(=O)OC(CC(=O)[O-])C[N+](C)(C)C (racemic) [palmitoyl-d,l-carnitine]
- Contractile force, Mean ± S.E. (isolated rabbit hearts [1]; 1·10^-5 g/lt): 38.2 ± 4.75%
- Contractile force, Mean ± S.E. (isolated rabbit hearts [1]; 1·10^-6 g/lt): 27.8 ± 4.71%
- Contractile force, Mean ± S.E. (isolated rabbit hearts [1]; 5·10^-6 g/lt): 33.4 ± 3.08%
- Coronary flow, Mean ± S.E. (isolated rabbit hearts [2]; 1·10^-5 g/lt): 84.68 ± 7.20%
- Coronary flow, Mean ± S.E. (isolated rabbit hearts [2]; 1·10^-6 g/lt): 78.15 ± 7.21%
- Coronary flow, Mean ± S.E. (isolated rabbit hearts [2]; 5·10^-6 g/lt): 72.20 ± 12.73%
- inhibition at 0.001 µg/mL (isolated rat atrium; [3]): 0%
- inhibition at 0.01 µg/mL (isolated rat atrium; [3]): 3.01%
- inhibition at 0.1 µg/mL (isolated rat atrium; [3]): 32.8%
- inhibition at 0.001 µg/mL (isolated rat atrium; [4]): 16.9%
- inhibition at 0.01 µg/mL (isolated rat atrium; [4]): 8.14%
- inhibition at 0.1 µg/mL (isolated rat atrium; [4]): 80.5%
- activation at 0.001 µg/mL (isolated rat atrium; [5]): 0%
- activation at 0.01 µg/mL (isolated rat atrium; [5]): 13.7%
- activation at 0.1 µg/mL (isolated rat atrium; [5]): 34.1%
- activation at 0.001 µg/mL (isolated rat atrium; [6]): 22.2%
- activation at 0.01 µg/mL (isolated rat atrium; [6]): 7.33%
- activation at 0.1 µg/mL (isolated rat atrium; [6]): 6.91%
- responders at 300 mg/kg (female rats; read-out: percentage of animals staying on the rota-rod more than 180 seconds, 300 mg/kg i.p., session 1 (every 15 minutes)): 0%
- responders at 300 mg/kg (female rats; read-out: percentage of animals staying on the rota-rod more than 180 seconds, 300 mg/kg i.p., session 2 (every 15 minutes)): 0%
- responders at 300 mg/kg (female rats; read-out: percentage of animals staying on the rota-rod more than 180 seconds, 300 mg/kg i.p., session 3 (every 15 minutes)): 0%
- responders at 300 mg/kg (female rats; read-out: percentage of animals staying on the rota-rod more than 180 seconds, 300 mg/kg i.p., session 4 (every 15 minutes)): 0%
- responders at 300 mg/kg (female rats; read-out: percentage of animals staying on the rota-rod more than 180 seconds, 300 mg/kg i.p., session 5 (every 15 minutes)): 10%
- responders at 300 mg/kg (female rats; read-out: percentage of animals staying on the rota-rod more than 180 seconds, 300 mg/kg i.p., session 6 (every 15 minutes)): 10%
- responders at 400 mg/kg (female rats; read-out: percentage of animals staying on the rota-rod more than 180 seconds, 400 mg/kg i.p., session 1 (every 15 minutes)): 0%
- responders at 400 mg/kg (female rats; read-out: percentage of animals staying on the rota-rod more than 180 seconds, 400 mg/kg i.p., session 2 (every 15 minutes)): 0%
- responders at 400 mg/kg (female rats; read-out: percentage of animals staying on the rota-rod more than 180 seconds, 400 mg/kg i.p., session 3 (every 15 minutes)): 0%
- responders at 400 mg/kg (female rats; read-out: percentage of animals staying on the rota-rod more than 180 seconds, 400 mg/kg i.p., session 4 (every 15 minutes)): 10%
- responders at 400 mg/kg (female rats; read-out: percentage of animals staying on the rota-rod more than 180 seconds, 400 mg/kg i.p., session 5 (every 15 minutes)): 20%
- responders at 400 mg/kg (female rats; read-out: percentage of animals staying on the rota-rod more than 180 seconds, 400 mg/kg i.p., session 6 (every 15 minutes), * p < 0.05): 20%
- responders at 600 mg/kg (female rats; read-out: percentage of animals staying on the rota-rod more than 180 seconds, 600 mg/kg i.p., session 1 (every 15 minutes)): 0%
- responders at 600 mg/kg (female rats; read-out: percentage of animals staying on the rota-rod more than 180 seconds, 600 mg/kg i.p., session 2 (every 15 minutes)): 0%
- responders at 600 mg/kg (female rats; read-out: percentage of animals staying on the rota-rod more than 180 seconds, 600 mg/kg i.p., session 3 (every 15 minutes)): 0%
- responders at 600 mg/kg (female rats; read-out: percentage of animals staying on the rota-rod more than 180 seconds, 600 mg/kg i.p., session 4 (every 15 minutes)): 20%
- responders at 600 mg/kg (female rats; read-out: percentage of animals staying on the rota-rod more than 180 seconds, 600 mg/kg i.p., session 5 (every 15 minutes)): 20%
- responders at 600 mg/kg (female rats; read-out: percentage of animals staying on the rota-rod more than 180 seconds, 600 mg/kg i.p., session 6 (every 15 minutes), * p < 0.05): 30%

Compound: CCCCCCCC(=O)OC(CC(=O)[O-])C[N+](C)(C)C (racemic) [octanoyl-d,l-carnitine]
- Contractile force, Mean ± S.E. (isolated rabbit hearts [1]; 1·10^-5 g/lt): 37.8 ± 4.62%
- Contractile force, Mean ± S.E. (isolated rabbit hearts [1]; 1·10^-6 g/lt): 25.2 ± 3.60%
- Contractile force, Mean ± S.E. (isolated rabbit hearts [1]; 5·10^-6 g/lt): 29.8 ± 4.13%
- Coronary flow, Mean ± S.E. (isolated rabbit hearts [2]; 1·10^-5 g/lt): 84.71 ± 6.20%
- Coronary flow, Mean ± S.E. (isolated rabbit hearts [2]; 1·10^-6 g/lt): 76.24 ± 6.13%
- Coronary flow, Mean ± S.E. (isolated rabbit hearts [2]; 5·10^-6 g/lt): 76.00 ± 9.16%
- inhibition at 0.1 µg/mL (isolated rat atrium; 1·10^-4 g/lt, decrease, read-out: Mean percent variation versus controls: excitability (-%)): 47.8%
- inhibition at 0.1 µg/mL (isolated rat atrium; 1·10^-4 g/lt, decrease, read-out: Mean percent variation versus controls: frequency max (-%)): 17.2%
- activation at 0.1 µg/mL (isolated rat atrium; 1·10^-4 g/lt, increase, read-out: Mean percent variation versus controls: refractory period (+%)): 39.8%
- activation at 0.1 µg/mL (isolated rat atrium; 1·10^-4 g/lt, increase, read-out: Mean percent variation versus controls: rheobase (+%)): 4.16%
- inhibition at 0.01 µg/mL (isolated rat atrium; 1·10^-5 g/lt, decrease, read-out: Mean percent variation versus controls: excitability (-%)): 28.6%
- inhibition at 0.01 µg/mL (isolated rat atrium; 1·10^-5 g/lt, decrease, read-out: Mean percent variation versus controls: frequency max (-%)): 36.2%
- activation at 0.01 µg/mL (isolated rat atrium; 1·10^-5 g/lt, increase, read-out: Mean percent variation versus controls: refractory period (+%)): 16.5%
- activation at 0.01 µg/mL (isolated rat atrium; 1·10^-5 g/lt, increase, read-out: Mean percent variation versus controls: rheobase (+%)): 0%
- inhibition at 0.001 µg/mL (isolated rat atrium; 1·10^-6 g/lt, decrease, read-out: Mean percent variation versus controls: excitability (-%)): 12.7%
- inhibition at 0.001 µg/mL (isolated rat atrium; 1·10^-6 g/lt, decrease, read-out: Mean percent variation versus controls: frequency max (-%)): 10.9%
- activation at 0.001 µg/mL (isolated rat atrium; 1·10^-6 g/lt, increase, read-out: Mean percent variation versus controls: refractory period (+%)): 5.73%
- activation at 0.001 µg/mL (isolated rat atrium; 1·10^-6 g/lt, increase, read-out: Mean percent variation versus controls: rheobase (+%)): 9.46%
- responders at 300 mg/kg (female rats; 300 mg/kg i.p., session 1 (every 15 minutes), read-out: percentage of animals staying on the rota-rod more than 180 seconds): 0%
- responders at 300 mg/kg (female rats; 300 mg/kg i.p., session 2 (every 15 minutes), read-out: percentage of animals staying on the rota-rod more than 180 seconds): 0%
- responders at 300 mg/kg (female rats; 300 mg/kg i.p., session 3 (every 15 minutes), read-out: percentage of animals staying on the rota-rod more than 180 seconds): 0%
- responders at 300 mg/kg (female rats; 300 mg/kg i.p., session 4 (every 15 minutes), read-out: percentage of animals staying on the rota-rod more than 180 seconds): 0%
- responders at 300 mg/kg (female rats; 300 mg/kg i.p., session 5 (every 15 minutes), read-out: percentage of animals staying on the rota-rod more than 180 seconds): 10%
- responders at 300 mg/kg (female rats; 300 mg/kg i.p., session 6 (every 15 minutes), read-out: percentage of animals staying on the rota-rod more than 180 seconds): 10%
- responders at 400 mg/kg (female rats; 400 mg/kg i.p., session 1 (every 15 minutes), read-out: percentage of animals staying on the rota-rod more than 180 seconds): 0%
- responders at 400 mg/kg (female rats; 400 mg/kg i.p., session 2 (every 15 minutes), read-out: percentage of animals staying on the rota-rod more than 180 seconds): 0%
- responders at 400 mg/kg (female rats; 400 mg/kg i.p., session 3 (every 15 minutes), read-out: percentage of animals staying on the rota-rod more than 180 seconds): 0%
- responders at 400 mg/kg (female rats; 400 mg/kg i.p., session 4 (every 15 minutes), read-out: percentage of animals staying on the rota-rod more than 180 seconds): 0%
- responders at 400 mg/kg (female rats; 400 mg/kg i.p., session 5 (every 15 minutes), read-out: percentage of animals staying on the rota-rod more than 180 seconds): 10%
- responders at 400 mg/kg (female rats; 400 mg/kg i.p., session 6 (every 15 minutes), * p < 0.05, read-out: percentage of animals staying on the rota-rod more than 180 seconds): 10%
- responders at 600 mg/kg (female rats; 600 mg/kg i.p., session 1 (every 15 minutes), read-out: percentage of animals staying on the rota-rod more than 180 seconds): 0%
- responders at 600 mg/kg (female rats; 600 mg/kg i.p., session 2 (every 15 minutes), read-out: percentage of animals staying on the rota-rod more than 180 seconds): 0%
- responders at 600 mg/kg (female rats; 600 mg/kg i.p., session 3 (every 15 minutes), read-out: percentage of animals staying on the rota-rod more than 180 seconds): 10%
- responders at 600 mg/kg (female rats; 600 mg/kg i.p., session 4 (every 15 minutes), read-out: percentage of animals staying on the rota-rod more than 180 seconds): 10%
- responders at 600 mg/kg (female rats; 600 mg/kg i.p., session 5 (every 15 minutes), read-out: percentage of animals staying on the rota-rod more than 180 seconds): 10%
- responders at 600 mg/kg (female rats; 600 mg/kg i.p., session 6 (every 15 minutes), * p < 0.05, read-out: percentage of animals staying on the rota-rod more than 180 seconds): 30%
